Results reported in patent US20020013324A1, “N-substituted imide derivatives with serotonergic activity” (American Home Products Corporation, priority 1999, published 2002).
Structures can show the parent of a compound that is named as a salt.

Tested on: not given
Assay: not given
Conditions: not given

Question: For COc1ccccc1N1CCN(C[C@@H](C)N(C(=O)c2ccccc2)C(=O)c2ccccc2)CC1 (as salt: fumarate) (hydrate or solvate) [Example 16, (R)-N-Benzoyl-N-{1-methyl-2-[4-(2-methoxyphenyl)-piperazin-1-yl]-ethyl}-benzamide semifumarate-hemihydrate], which melting point is on record?
Answer: Its melting point is 115 to 120 °C.

Question: Which melting point does the source give for COc1ccccc1N1CCN(C[C@@H](Cc2ccccc2)N(C(=O)C2CCCCC2)C(=O)C2CCCCC2)CC1 (as salt: fumarate) [Example 10, (R)-Cyclohexanecarboxylic acid cyclohexanecarbonyl-{1-benzyl)-2-[4-(2-methoxy-phenyl)-piperazin-1yl]-ethyl}-amide fumarate] here?
Answer: The melting point was 146 to 147 °C.

Question: For O=C(C1CCCCC1)N(CCN1CCN(c2cccc3c2OCCO3)CC1)C(=O)C1CCCCC1 (as salt: hydrochloride) (hydrate or solvate) [Example 8, Cyclohexanecarboxylic acid cyclohexanecarbonyl-{2-[4-(2,3-dihydro-benzo[1,4]-dioxin)-5-yl}-piperazin-1-yl]-ethyl}-amide sesquihydrochloride monohydrate], which melting point is on record?
Answer: Its melting point is 148 to 149 °C.

Question: Which melting point does the source give for O=C(c1ccccc1)N(CCN1CCN(c2cccc3c2OCCO3)CC1)C(=O)C1CCCCC1 (as salt: hydrochloride) (hydrate or solvate) [Example 14, Cyclohexanecarboxylic acid benzoyl-{2-[4-(2,3-dihydro-benzo[1,4]dioxin-5-yl)-1-piperazin-1-ylethyl]-amide hydrochloride sesquihydrate] here?
Answer: The melting point was 169 to 171 °C.

Question: Which melting point does the source give for COc1ccc(C[C@H](CN2CCN(c3ccccc3OC)CC2)N(C(=O)C2CCCCC2)C(=O)C2CCCCC2)cc1 (as salt: hydrochloride) [Example 11, (R)-Cyclohexanecarboxylic acid cyclohexanecarbonyl-{1-(4-methoxybenzyl)-2-[4-(2-methoxyphenyl)-piperazin-1-yl]-etlyl}-amide hydrochloride] here?
Answer: The melting point was 106 to 108 °C.

Question: With COc1ccccc1N1CCN(C[C@@H](Cc2cn(C)c3ccccc23)N(C(=O)C2CCCCC2)C(=O)C2CCCCC2)CC1.Cl.O (hydrate or solvate) [Example 12, (R)-Cyclohexanecarboxylic acid cyclohexanecarbonyl-{1-[4-(2-methoxyphenyl)-piperazin-1-ylmethyl]-2-(1-methyl-1H-indol-3-yl)ethyl}-amide hydrochloride monohydrate] as the molecule, how does the melting point read?
Answer: Its melting point is 136 to 138 °C.

Question: Which melting point does the source give for COc1ccccc1N1CCN(CCN(C(=O)C2CCCCC2)C(=O)C2CCCCC2)CC1.Cl.Cl [Example 6, Cyclohexanecarboxylic acid cyclohexanecarbonyl-{2-[4-(2-methoxyphenyl)-piperazin-1-yl]-ethyl}-amide dihydrochloride] here?
Answer: The melting point was 159 to 160 °C.

Question: For Cl.Cl.O=C(C1CCCCC1)N(CCN1CCN(c2cccc3[nH]ccc23)CC1)C(=O)C1CCCCC1 [Example 7, Cyclohexanecarboxylic acid cyclohexanecarbonyl-{2-[4-(1H-indol-4-yl)-piperazin-1-yl]-ethyl}-amide dihydrochloride], which melting point is on record?
Answer: Its melting point is 144 to 146 °C.

Biological target: T1, human 5-HT1A receptor (Homo sapiens, UniProt P08908)
T1 construct: expressed in transfected cells; host or cells: CHO cells (stably transfected)
T1 sequence (P08908 1-422): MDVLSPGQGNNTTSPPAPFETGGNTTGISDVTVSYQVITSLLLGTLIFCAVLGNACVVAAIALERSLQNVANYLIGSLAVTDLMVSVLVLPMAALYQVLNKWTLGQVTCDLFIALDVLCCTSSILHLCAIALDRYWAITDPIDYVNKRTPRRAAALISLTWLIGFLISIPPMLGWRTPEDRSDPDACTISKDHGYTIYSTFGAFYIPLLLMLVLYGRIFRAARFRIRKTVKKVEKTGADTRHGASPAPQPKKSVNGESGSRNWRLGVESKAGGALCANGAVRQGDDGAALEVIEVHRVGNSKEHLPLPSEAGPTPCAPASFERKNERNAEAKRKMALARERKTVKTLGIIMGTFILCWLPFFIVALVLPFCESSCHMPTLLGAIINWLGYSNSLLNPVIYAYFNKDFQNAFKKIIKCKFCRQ
Assay: Displacement of [3H]8-OH-DPAT from the 5-HT1A receptor in transfected CHO cells
Conditions: [3H]-8-OH-DPAT 1.5 nM; CHO cells with human 5-HT1A receptor; nonspecific binding with 10 μM 5-HT; room temperature; read-out: 5-HT1A Affinity (IC50)
Text: Affinity for the serotonin 5-HT1A receptor was established by assaying the test compound's ability to displace [3H]8-OHDPAT (dipropylaminotetralin) from its binding site on the receptor complex in CHO cells stably transfected with the human 5-HT1A receptor following a variation of a procedure of J. Zgombick et al., Naunyn-Schmiedeberg's Arch. Pharmacol., 354, 226-236 (1996), as described by J. Dunlop, Y. Zhang, D. L. Smith and L. E. Schechter, Journal of Pharmacological and Toxicological Methods 40, 47-55 (1998). The variation includes: the use of cells containing clonal human 5-HT1A receptor in place of 5-HT1D receptor; the use of [3H]-8-OH-DPAT (1.5 nM) as radioligand in place of [3H]-LSD; nonspecific binding determined with 10 μM 5-HT; and the test procedure was run at room temperature rather than 37° C.

Question: For COc1ccccc1N1CCN(CCN(C(=O)C2CCCCC2)C(=O)C2CCCCC2)CC1.Cl.Cl [Example 6, Cyclohexanecarboxylic acid cyclohexanecarbonyl-{2-[4-(2-methoxyphenyl)-piperazin-1-yl]-ethyl}-amide dihydrochloride], which IC50 is on record?
Answer: The IC50 was 3.1 nM.

Question: For Cl.Cl.O=C(C1CCCCC1)N(CCN1CCN(c2cccc3[nH]ccc23)CC1)C(=O)C1CCCCC1 [Example 7, Cyclohexanecarboxylic acid cyclohexanecarbonyl-{2-[4-(1H-indol-4-yl)-piperazin-1-yl]-ethyl}-amide dihydrochloride], which IC50 is on record?
Answer: Its IC50 is 4.55 nM.

Question: With O=C(C1CCCCC1)N(CCN1CCN(c2cccc3c2OCCO3)CC1)C(=O)C1CCCCC1 [Example 8, Cyclohexanecarboxylic acid cyclohexanecarbonyl-{2-[4-(2,3-dihydro-benzo[1,4]-dioxin)-5-yl}-piperazin-1-yl]-ethyl}-amide sesquihydrochloride monohydrate] as the molecule, how does the IC50 read?
Answer: Its IC50 is 4.77 nM.

Question: Which IC50 does the source give for COc1ccccc1N1CCN(C[C@@H](Cc2ccccc2)N(C(=O)C2CCCCC2)C(=O)C2CCCCC2)CC1 [Example 10, (R)-Cyclohexanecarboxylic acid cyclohexanecarbonyl-{1-benzyl)-2-[4-(2-methoxy-phenyl)-piperazin-1yl]-ethyl}-amide fumarate] here?
Answer: The IC50 was 61 nM.

Question: Which IC50 does the source give for COc1ccc(C[C@H](CN2CCN(c3ccccc3OC)CC2)N(C(=O)C2CCCCC2)C(=O)C2CCCCC2)cc1 [Example 11, (R)-Cyclohexanecarboxylic acid cyclohexanecarbonyl-{1-(4-methoxybenzyl)-2-[4-(2-methoxyphenyl)-piperazin-1-yl]-etlyl}-amide hydrochloride] here?
Answer: The IC50 was 0.38 nM.

Question: Which IC50 does the source give for COc1ccccc1N1CCN(C[C@@H](Cc2cn(C)c3ccccc23)N(C(=O)C2CCCCC2)C(=O)C2CCCCC2)CC1 [Example 12, (R)-Cyclohexanecarboxylic acid cyclohexanecarbonyl-{1-[4-(2-methoxyphenyl)-piperazin-1-ylmethyl]-2-(1-methyl-1H-indol-3-yl)ethyl}-amide hydrochloride monohydrate] here?
Answer: The IC50 was 0.78 nM.

Question: With O=C(c1ccccc1)N(CCN1CCN(c2cccc3c2OCCO3)CC1)C(=O)C1CCCCC1 [Example 14, Cyclohexanecarboxylic acid benzoyl-{2-[4-(2,3-dihydro-benzo[1,4]dioxin-5-yl)-1-piperazin-1-ylethyl]-amide hydrochloride sesquihydrate] as the molecule, how does the IC50 read?
Answer: The IC50 was 5.13 nM.

Question: For COc1ccccc1N1CCN(CCN(C(=O)c2ccccc2)C(=O)c2ccccc2)CC1 [Example 15, N-Benzoyl-N-{-2-[4-(2-methoxyphenyl)-piperazin-1-yl]-ethyl}-benzamide hydrochloride hemihydrate], which IC50 is on record?
Answer: The IC50 was 23.4 nM.

Question: Which IC50 does the source give for COc1ccccc1N1CCN(C[C@@H](C)N(C(=O)c2ccccc2)C(=O)c2ccccc2)CC1 [Example 16, (R)-N-Benzoyl-N-{1-methyl-2-[4-(2-methoxyphenyl)-piperazin-1-yl]-ethyl}-benzamide semifumarate-hemihydrate] here?
Answer: Its IC50 is 79.6 nM.

Question: For “(R)-Cyclohexanecarboxylic acid cyclohexanecarbonyl-{1-methyl-2-[4-(2-methoxyphenyl)-piperazin-2-yl]-ethyl}-amide fumarate [Example 9]”, which IC50 is on record?
Answer: The IC50 was 2.69 nM.
